Results as given in ChEMBL document CHEMBL1133951, “New anti-malarial flavonol glycoside from Hydrangeae Dulcis Folium” (2001).

Experiments:
Plasmodium falciparum [1] = assay: Antimalarial potency against Plasmodium falciparum at 0.5 ng/mL.; assay type: functional
Plasmodium falciparum [2] = assay: Anti-malarial potency against Plasmodium falciparum at 0.1 ng/ml; assay type: functional
Plasmodium falciparum [3] = assay: Antimalarial potency against Plasmodium falciparum at 0.05 ng/mL.; assay type: functional
Plasmodium falciparum [4] = assay: Anti-malarial potency against Plasmodium falciparum at 5 ng/ml; assay type: functional
KB 3-1 [5] = assay: Cytotoxic activity against KB 3-1 cells at 5 ug/mL; Not detected.; assay type: functional, cell-based; conditions: Homo sapiens
KB 3-1 [6] = assay: Cytotoxic activity against KB 3-1 cells at 5 ug/m; Not detected.; assay type: functional, cell-based; conditions: Homo sapiens
Plasmodium falciparum [7] = assay: Inhibitory ratio on proliferation of Plasmodium falciparum at 0.1 uM; assay type: functional

Work on C[C@@H]1O[C@@H](Oc2c(-c3ccc(O)c(O)c3)oc3cc(O)cc(O)c3c2=O)[C@H](O)[C@H](O)[C@H]1O [QUERCITRIN] yielded an Activity (Plasmodium falciparum [1]) of 36%, an Activity (Plasmodium falciparum [2]) of 39.4% and an Activity (Plasmodium falciparum [3]) of 34%. For the same compound, the Activity (Plasmodium falciparum [4]) was 32.9%.
In the case of C[C@@H]1O[C@@H](OC[C@H]2O[C@@H](Oc3c(-c4ccc(O)cc4)oc4cc(O)cc(O)c4c3=O)[C@H](O[C@H]3OC[C@H](O)[C@@H](O)[C@@H]3O)[C@@H](O)[C@H]2O)[C@H](O)[C@H](O)[C@H]1O, the Activity (Plasmodium falciparum [1]) is reported as 68.7%, the Activity (Plasmodium falciparum [2]) is reported as 54.2% and the Activity (Plasmodium falciparum [3]) is reported as 37.6%. For the same compound, the Activity (Plasmodium falciparum [4]) was 58.9% and the Cytotoxicity (KB 3-1 [5]) was “Not detected”.
O=c1c(O[C@@H]2O[C@H](CO[C@@H]3OC[C@@H](O)[C@H](O)[C@H]3O)[C@H](O)[C@H](O)[C@H]2O)c(-c2ccc(O)cc2)oc2cc(O)cc(O)c12 showed an Activity (Plasmodium falciparum [1]) of 61.9%, an Activity (Plasmodium falciparum [2]) of 43.1% and an Activity (Plasmodium falciparum [3]) of 22.4%. For the same compound, the Activity (Plasmodium falciparum [4]) was 56.2% and the Cytotoxicity (KB 3-1 [6]) was “Not detected”.
Work on C=C[C@H]1CN2CC[C@H]1C[C@H]2[C@H](O)c1ccnc2ccc(OC)cc12 [QUININE] yielded an Inhibitory ratio (Plasmodium falciparum [7]) of 45.3.
In the case of C[C@@H]1O[C@@H](Oc2c(-c3ccc(O)c(O)c3)oc3cc(O)cc(O)c3c2=O)[C@H](O)[C@H](O)[C@H]1O[C@@H]1O[C@H](CO)[C@H](O)[C@@H](O)[C@H]1O, the Activity (Plasmodium falciparum [1]) is reported as 43.4%, the Activity (Plasmodium falciparum [2]) is reported as 32.8% and the Activity (Plasmodium falciparum [3]) is reported as 25%. The Activity (Plasmodium falciparum [4]) was 48.1%.
Compound CC(=O)OC[C@H]1O[C@@H](O[C@@H]2[C@@H](O)[C@@H](O)[C@H](Oc3c(-c4ccc(O)c(O)c4)oc4cc(O)cc(O)c4c3=O)O[C@H]2C)[C@H](O)[C@H](O)[C@H]1O has an Activity (Plasmodium falciparum [1]) of 52.1%, an Activity (Plasmodium falciparum [2]) of 40.3% and an Activity (Plasmodium falciparum [3]) of 27.4%. The Activity (Plasmodium falciparum [4]) was 65.4% and the Cytotoxicity (KB 3-1 [5]) was “Not detected”.
Compound COc1cc(-c2oc3cc(O)cc(O)c3c(=O)c2O[C@H]2O[C@H](CO[C@@H]3O[C@@H](C)[C@H](O)[C@@H](O)[C@H]3O)[C@H](O)[C@@H](O)[C@H]2O)ccc1O has an Activity (Plasmodium falciparum [1]) of 44.5%, an Activity (Plasmodium falciparum [2]) of 24.5% and an Activity (Plasmodium falciparum [3]) of 10.8%. The Activity (Plasmodium falciparum [4]) was 41.5%.
C[C@@H]1O[C@@H](OC[C@H]2O[C@H](Oc3c(-c4ccc(O)cc4)oc4cc(O)cc(O)c4c3=O)[C@H](O)[C@H](O)[C@H]2O)[C@H](O)[C@H](O)[C@H]1O showed an Activity (Plasmodium falciparum [1]) of 60.1%, an Activity (Plasmodium falciparum [2]) of 49.1% and an Activity (Plasmodium falciparum [3]) of 30.5%. The Activity (Plasmodium falciparum [4]) was 50.9%.
For C[C@@H]1O[C@@H](OC[C@H]2O[C@H](Oc3c(-c4ccc(O)c(O)c4)oc4cc(O)cc(O)c4c3=O)[C@H](O)[C@H](O)[C@H]2O)[C@H](O)[C@H](O)[C@H]1O, the Activity (Plasmodium falciparum [1]) was 56%, the Activity (Plasmodium falciparum [2]) was 51.6% and the Activity (Plasmodium falciparum [3]) was 38.7%. For the same compound, the Activity (Plasmodium falciparum [4]) was 56.4% and the Cytotoxicity (KB 3-1 [5]) was “Not detected”.
O=c1c(O[C@@H]2O[C@H](CO)[C@H](O)[C@@H](O)[C@H]2O)c(-c2ccc(O)c(O)c2)oc2cc(O)cc(O)c12 showed an Activity (Plasmodium falciparum [1]) of 31.7%, an Activity (Plasmodium falciparum [2]) of 27.7% and an Activity (Plasmodium falciparum [3]) of 31.1%. For the same compound, the Activity (Plasmodium falciparum [4]) was 36.8%.
